Results: article PMC8395214, “Promising Anticancer Activity of [Bis(1,8-quinolato)palladium (II)] Alone and in Combination” (International Journal of Molecular Sciences, 2021)
pIC50: −log10 of the molar value. Like-named read-outs stand apart in the source and are kept apart here. Values belong to the compound of their own block, whether it stands above or below them.

How the values were obtained:
[1] = test system: Raji (lymphoma), Hela (cervical) and PC-3 (prostate) cancer cell line; conditions: cited from earlier work
A2780 cell line [2] = assay: Binary sequenced combination study (MTT, CI and dose-effect parameters); type: cell-based, human; conditions: single drug; for pIC50: read-out: Dm (median effect dose)
Experimental: (§1) Binary sequenced combinations of NH3 with curcumin and EGCG have been investigated in both ovarian and colorectal cancer models using four different cell lines.
(§2) The method for determining single drug cytotoxicity and activity of drugs in sequenced combination was the same as described in our previous articles. […] The plates were then left to incubate under normal growth conditions for 72 h. […] Four hours after the addition of the MTT solution (50 µL per well of 1 mg/mL MTT solution), the purple formazan crystals produced from the reduction of MTT were dissolved in 150 µL DMSO and read with a iMarkTM Bio-Rad Microplate Reader Version 1.04.02.E. The IC50 values were obtained from the results of at least three independent experiments. Proteomic study was conducted following same procedure mentioned before in our published research article.

A2780^cisR cell line [3] = assay: as above; type: cell-based, human; conditions: single drug; for pIC50: read-out: Dm (median effect dose)
Experimental: as §1, §2

Caco-2 cell line = assay: as above; type: cell-based, human; conditions: single drug; for pIC50: read-out: Dm (median effect dose)
Experimental: as §1, §2

HT-29 cell line [4] = assay: as above; type: cell-based, human; conditions: single drug; for pIC50: read-out: Dm (median effect dose)
Experimental: as §1, §2

A2780^ZDO473R = assay: MTT reduction assay, cytotoxicity; type: cell-based, human
Experimental: (§3) Dose response curves have been presented in Supplementary File (Figures S1–S5).
as §2

A2780^cisR = assay: MTT reduction assay, cytotoxicity; type: cell-based, human; conditions: A2780^cisR cell line
Experimental: as §3, §2

A2780 = assay: MTT reduction assay, cytotoxicity; type: cell-based, human; conditions: parent ovarian A2780 cell line
Experimental: as §3, §2

Hela = assay: MTT reduction assay, cytotoxicity; type: cell-based, human; conditions: Hela cell line
Experimental: as §3, §2

MCF-7 = assay: MTT reduction assay, cytotoxicity; type: cell-based, human; conditions: MCF-7 cell line
Experimental: as §3, §2

A2780 cell line [5] = assay: Proteomic study, protein expression after treatment with NH3 alone; type: cell-based, human
Excerpt: (§4) The study has provided information on the underlying mechanism of antitumor activity of NH3 alone in different cell lines. Total of 19 (seven from A2780 cell line, nine from A2780^cisR cell line and three from HT-29 cell line) proteins have been identified from the present study that underwent significant changes in expression following treatment with NH3 alone. Change in folds of the respective proteins after treatment with NH3 alone is shown in Table 2 (A2780 cell line), Table 3 (A2780^cisR cell line) and Table 4 (HT-29 cell line).
as §2

HT-29 cell line [6] = assay: as above; type: cell-based, human
Excerpt: as §4, §2

A2780^cisR cell line [7] = type: cell-based, human
Excerpt: as §4, §2

[8] = test system: Swiss-albino adult male mice; assay: Twenty days in vivo toxicity study; conditions: for Survival of mice till the end of the experiment: subcutaneous, twenty days study; for Creatinine / SGOT / SGPT: serum
Experimental: Experimental animals: Thirty six Swiss-albino adult male mice (body weight range 20 ± 5 gm) were purchased from the Department of Pharmacy, Jahangirnagar University, Bangladesh. Mice were housed in a 12 h day night cycle (light on at 7 am and off at 7 pm) providing bench light of 350 lux, at 25 ± 2 °C temperature and 55 ± 10% humidity. Mice were reared in the cages (580 × 375 × 190 mm), supplied with commercially available food pellet [Rodent diet, ICDDRB, Bangladesh] and drinking water ad libitum. Body weight of each mouse was measured twice every day and other physical changes recorded.
Animal sacrifice, blood and organs collection: Twenty four hours following the last treatment and test, the mice were kept in fasting overnight. Then, they were anaesthetized with intraperitoneal injection of sodium pentobarbital (35 mg/kbw) [Phenobarbital, Incepta Pharmaceuticals, Bangladesh] and sacrificed as shown in Table 9
Blood was collected immediately, centrifuged at 1000 rpm, collected plasma and serum were preserved at –80 °C for biochemical study (SGPT, SGOT and Creatinine). Biochemical investigations were carried out in an auto analyzer (Photometer 5010 V5+, Robert Riely, Berlin, Germany) using Sigma Aldrich (Saint Louis, MO, USA) reagent kit. The mice model preliminary toxicity study was approved by the Biosafety, Biosecurity and Ethical Committee [Approval Number: BBEC-JU/M2019(12)1] of Jahangirnagar University, Savar, Dhaka, Bangladesh. Statistical analysis was conducted through SPSS using Satterthwaite’s method for equality of variances.

SMILES: Oc1cccc2cccnc12 [8-Hydroxyquinoline]
Antitumor activity [1]: significant antitumor activity

pIC50 (A2780 cell line [2]; Homo sapiens): 5.06 | pIC50 (A2780^cisR cell line [3]; Homo sapiens, A2780cisR): 4.78 | pIC50 (Caco-2 cell line; Homo sapiens): 4.66 | pIC50 (HT-29 cell line [4]; Homo sapiens): 4.78
SMILES: COc1cc(/C=C/C(=O)CC(=O)/C=C/c2ccc(O)c(OC)c2)ccc1O [Curcumin, curcumin]
m (exponent defining the shape of the dose–effect curve) (A2780 cell line [2]): 1.25 | m (exponent defining the shape of the dose–effect curve) (A2780^cisR cell line [3]): 1.56 | m (exponent defining the shape of the dose–effect curve) (Caco-2 cell line): 1.08 | m (exponent defining the shape of the dose–effect curve) (HT-29 cell line [4]): 1.25

pIC50 (A2780 cell line [2]): 4.99 | pIC50 (A2780^cisR cell line [3]): 5.05 | pIC50 (Caco-2 cell line): 3.97 | pIC50 (HT-29 cell line [4]): 5.44
SMILES: O=C(O[C@@H]1Cc2c(O)cc(O)cc2O[C@@H]1c1cc(O)c(O)c(O)c1)c1cc(O)c(O)c(O)c1 [EGCG, epigallocatechin gallate]
m (exponent defining the shape of the dose–effect curve) (A2780 cell line [2]): 0.94 | m (exponent defining the shape of the dose–effect curve) (A2780^cisR cell line [3]): 0.93 | m (exponent defining the shape of the dose–effect curve) (Caco-2 cell line): 1.32 | m (exponent defining the shape of the dose–effect curve) (HT-29 cell line [4]): 0.39

SMILES: [O-]c1cccc2cccnc12.[O-]c1cccc2cccnc12.[Pd+2] [NH3, [Bis(1,8-quinolato)palladium (II)]]
times greater activity than cisplatin (A2780^ZDO473R): 80 times | times greater activity than cisplatin (A2780^cisR): 90 times | times greater activity than cisplatin (A2780): 10 times | times greater cytotoxicity than cisplatin (Hela): around 10 times | times greater cytotoxicity than cisplatin (MCF-7): around 65 times | Change in Expression: Actin, cytoplasmic 1 (A2780 cell line [5]; spot 6): Downregulated | Fold change: Actin, cytoplasmic 1 (A2780 cell line [5]; spot 6, Downregulated): 4.8 | Change in Expression: Vimentin (A2780 cell line [5]; spot 12): Downregulated | Fold Change: Vimentin (A2780 cell line [5]; spot 12, Downregulated): 1.63 | Change in Expression: 60 kDa heat shock protein, mitochondrial (A2780 cell line [5]; spot 13): Downregulated | Fold Change: 60 kDa heat shock protein, mitochondrial (A2780 cell line [5]; spot 13, Downregulated): 3.23 | Change in Expression: Endoplasmin (A2780 cell line [5]; spot 18): Downregulated | Fold Change: Endoplasmin (A2780 cell line [5]; spot 18, Downregulated): 4.56 | Change in Expression: 78 kDa glucose-regulated protein (A2780 cell line [5]; spot 45): Downregulated | Fold Change: 78 kDa glucose-regulated protein (A2780 cell line [5]; spot 45, Downregulated): 2.00 | Change in Expression: Polyubiquitin-B (A2780 cell line [5]; spot 118): Downregulated | Fold Change: Polyubiquitin-B (A2780 cell line [5]; spot 118, Downregulated): 11.39 | Change in Expression: Histone H3.3 (A2780 cell line [5]; spot 155): Downregulated | Fold Change: Histone H3.3 (A2780 cell line [5]; spot 155, Downregulated): 6.63 | Change in Expression: Nucleoside Diphosphate kinase B (HT-29 cell line [6]; spot Hn70): Downregulated | Fold Change: Nucleoside Diphosphate kinase B (HT-29 cell line [6]; spot Hn70, Downregulated): 2.14 | Change in Expression: Annexin A1 (HT-29 cell line [6]; spot Hn89): Downregulated | Fold Change: Annexin A1 (HT-29 cell line [6]; spot Hn89, Downregulated): 1.85 | Change in Expression: Histone H4 (HT-29 cell line [6]; spot Hn119): Downregulated | Fold Change: Histone H4 (HT-29 cell line [6]; spot Hn119, Downregulated): 1.91 | Change in Expression: Actin, cytoplasmic 1 (A2780^cisR cell line [7]; spot 1): Downregulated | Fold change: Actin, cytoplasmic 1 (A2780^cisR cell line [7]; spot 1, Downregulated): 1.51 | Change in Expression: 40S ribosomal protein SA (A2780^cisR cell line [7]; spot Cn9): Downregulated | Fold change: 40S ribosomal protein SA (A2780^cisR cell line [7]; spot Cn9, Downregulated): 2.98 | Change in Expression: Heat shock cognate 71 kDa protein (A2780^cisR cell line [7]; spot Cn16): Downregulated | Fold change: Heat shock cognate 71 kDa protein (A2780^cisR cell line [7]; spot Cn16, Downregulated): 1.69 | Fold change: Keratin, type II cytoskeletal 1 (A2780^cisR cell line [7]; spot Cn23, Upregulated): 2.47 | Change in Expression: Elongation factor Tu, mitochondrial (A2780^cisR cell line [7]; spot Cn34): Downregulated | Fold change: Elongation factor Tu, mitochondrial (A2780^cisR cell line [7]; spot Cn34, Downregulated): 7.86 | Change in Expression: Citrate synthase, mitochondrial (A2780^cisR cell line [7]; spot Cn41): Downregulated | Fold change: Citrate synthase, mitochondrial (A2780^cisR cell line [7]; spot Cn41, Downregulated): 2.93 | Change in Expression: Transitional endoplasmic reticulum ATPase (A2780^cisR cell line [7]; spot Cn56): Downregulated | Fold change: Transitional endoplasmic reticulum ATPase (A2780^cisR cell line [7]; spot Cn56, Downregulated): 3.87 | Change in Expression: Cofilin-1 (A2780^cisR cell line [7]; spot Cn69): Downregulated | Fold change: Cofilin-1 (A2780^cisR cell line [7]; spot Cn69, Downregulated): 2.27 | Change in Expression: Actin, cytoplasmic 1 (A2780^cisR cell line [7]; spot Cn79): Downregulated | Fold change: Actin, cytoplasmic 1 (A2780^cisR cell line [7]; spot Cn79, Downregulated): 2.79 | Change in mean body weight of mice ([8]; both lower (2.5 mg/kg) and higher (5 mg/kg) doses, vs control groups): Decrease in body weight is also significant | Toxicity compared to cisplatin ([8]; both lower (2.5 mg/kg) and higher doses (5 mg/kg), twenty days): less toxic | Survival of mice till the end of the experiment ([8]; higher dose 5 mg/kg): only one mouse died | Survival of mice till the end of the experiment ([8]; lower dose 2.5 mg/kg): All mice were alive | Creatinine ([8]; 2.5 mg/kg): 0.9 ± 0.2 mg/dL | SGOT ([8]; 2.5 mg/kg): 53 ± 4 IU/L | SGPT ([8]; 2.5 mg/kg): 45 ± 3 IU/L | Creatinine ([8]; 5 mg/kg): 0.7 ± 0.2 mg/dL | SGOT ([8]; 5 mg/kg): 59 ± 5 IU/L | SGPT ([8]; 5 mg/kg): 48 ± 4 IU/L | m (exponent defining the shape of the dose–effect curve) (A2780 cell line [2]): 1.97 | pIC50 (A2780 cell line [2]): 6.74 | m (exponent defining the shape of the dose–effect curve) (A2780^cisR cell line [3]): 2.05 | pIC50 (A2780^cisR cell line [3]): 6.64 | m (exponent defining the shape of the dose–effect curve) (Caco-2 cell line): 1.96 | pIC50 (Caco-2 cell line): 6.25 | m (exponent defining the shape of the dose–effect curve) (HT-29 cell line [4]): 2.06 | pIC50 (HT-29 cell line [4]): 6.42
